Series [1] addresses T1, low affinity receptor (LNGFR), p75NTR or p75 (Homo sapiens, UniProt P08138).
T1 sequence (P08138 29-427): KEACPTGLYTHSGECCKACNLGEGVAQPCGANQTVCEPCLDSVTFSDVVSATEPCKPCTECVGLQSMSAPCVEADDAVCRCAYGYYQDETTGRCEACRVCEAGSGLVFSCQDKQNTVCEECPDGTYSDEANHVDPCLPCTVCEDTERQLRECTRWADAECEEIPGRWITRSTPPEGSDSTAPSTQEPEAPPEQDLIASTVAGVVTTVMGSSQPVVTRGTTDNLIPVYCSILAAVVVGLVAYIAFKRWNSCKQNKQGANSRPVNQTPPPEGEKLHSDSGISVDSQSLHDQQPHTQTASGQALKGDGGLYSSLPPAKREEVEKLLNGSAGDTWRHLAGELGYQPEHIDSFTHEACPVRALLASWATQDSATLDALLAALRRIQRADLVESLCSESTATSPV
Conditions: according to current knowledge (background); cited from earlier work.

For series [2], the system named is Female Swiss-Webster mice. In words: Taxol-induced gut disorder mouse model: abdominal distension score. As to conditions: second experiment; taxol 300, 375 or 450 mg/m^2; scored weekly.
Experimental: Female Swiss-Webster mice, eight weeks old were treated with vehicle alone (control), taxol alone, or agonist anti-trkC mouse monoclonal antibody 2256 (PCT WO 01/98361; Urfer et al. J. Biol. Chem. (1998) 273:5829-5840)) and taxol. Taxol was obtained from Calbiochem and prepared as a 20 mg/kg solution in Cremophor/ethanol (50:50 w/w), which was diluted with saline (1 part Cremophor/ethanol to four parts saline vol:vol), filtered through a 0.1 micron filter and administered intraperitoneally (“IP”) within 30 minutes of preparation. All treatment animals received one round of three taxol or control (vehicle) treatments every other day for three doses, i.e., day 1, 3 and 5 of the protocol. […] Taxol dose was determined on a mg/m^2 basis, using the formula that body surface area (in square cm) equals 10.5 times the weight in grams to the two-thirds power. […]
Taxol-induced gut disorder was assessed by measuring degree and quality of abdominal distension and intestinal hypertrophy after lifting the individual mouse by the tail. Degree and quality of taxol-induced abdominal distension was scored by a blinded observer using the following five point scale: • 0-no noticeable abdominal bulge • 1-slight bulge • 2-distinct bulge (may be full stomach) • 3-fat mouse • 4-definite lumpy abdomen • 5-swollen abdomen […]
Series [3] concerns Female Swiss-Webster mice. Briefly: Taxol-induced gut disorder mouse model: intestinal hypertrophy (weight and length of GI tract) and autopsy. The format is in vivo. The protocol:
Intestinal hypertrophy was assessed by measuring weight and length of the gastrointestinal (“GI”) tract as follows: animals were sacrificed, and the weight and length of the GI tract was assessed as follows: the entire GI tract was removed, emptied of any contents, and weighed. The GI tract was then separated into stomach, small intestine, and caecum plus large intestine and those parts were individually weighed.
Selected animals were sacrificed and subjected to autopsy. […] Ascites production was not observed in control animals.
Intestinal hypertrophy was assessed as described above. […] Ascites production was not observed in control animals.

Where [4] appears, read: taxol 450 mg/m^2 (four weeks) or 375 mg/m^2 (six weeks).

By Kd is commonly meant the concentration at which binding is half-saturated. As to neurotrophin-3 [NT-3], the Kd in series [1] is 2 nM.

Regarding nerve growth factor [NGF], the Kd in series [1] is 2 nM.

For the compound `CC(=O)O[C@H]1C(=O)[C@@]2(C)[C@H]([C@H](OC(=O)c3ccccc3)[C@]3(O)C[C@H](OC(=O)[C@H](O)[C@@H](NC(=O)c4ccccc4)c4ccccc4)C(C)=C1C3(C)C)[C@]1(OC(C)=O)CO[C@@H]1C[C@@H]2O` [taxol, paclitaxel], the “gut distension (FIG. 2)” value in series [2] is listed as “resulted in gut distension”. Further, in series [3] (setting [4]), the “length of the GI tract (FIG. 8)” value is listed as “significant decrease” and the “raw weight of the caecum plus large intestine (FIG. 9)” value is listed as “significant increase”. In series [3] (taxol 450 mg/m^2, four weeks), the “weight of the caecum plus large intestine (FIG. 6)” value was “significant increase” and the “weight of the small intestine (FIG. 5)” value is recorded as “significant increase”. For the same compound, the “weight of the GI tract from stomach through colon (FIG. 4)” value in series [3] (taxol 450 mg/m^2, sacrificed at four weeks) is reported as “significant increase”. For the same compound, the “intestinal obstruction(s) and/or stool softening or diarrhea” value in series [3] (taxol-treated animals at autopsy) is recorded as “exhibited intestinal obstruction(s) and/or stool softening or diarrhea”. In addition, in series [3] (taxol-treated animals with abdominal distension, not observed in control animals), the “ascites in the peritoneum at autopsy” value was “Production of ascites in the peritoneum was noted”.

The values above are taken from US20070014786A1, “Methods for treating taxol-induced gut disorder” (RINAT NEUROSCIENCE CORP., priority 2003, published 2007).
